Measured values reported in patent US20110275573A1, “TISSUE ADHESIVE” (METAMOREFIX LTD., priority 2008, published 2011).
Entries after “also recorded” stand apart in the source; their conditions may differ.

Key:
[1] = system: human foreskin fibroblasts (FF1); assay: Cell attachment assay in monolayers (peptide-coated Sepharose beads); format: cell-based
Procedure: (§1) A peptide solution in coupling buffer prepared as above was immediately added to the activated Sepharose beads Sepharose beads were used to fixate the peptides for all in-vitro assays in the column to a final binding of 6 mg peptide per ml gel. The column was closed and shaken overnight at 4° C. very gently to avoid mechanical breakage of the beads. The bottom cap of the column was removed and the solution of ligand/buffer was collected as the Sepharose Beads settled on the filter. The OD280 of the collected buffer was checked to determine the concentration of uncoupled peptide. The gel was washed/aspirated with 5 volumes (˜2 ml) of coupling buffer and gently mixed. Any remaining active groups on the gel were blocked with blocking buffer for 2 hours at room temperature or overnight at 4° C. The Sepharose beads gel with peptides was then washed by 2 cycles each of 5 gel volumes of: • a. 0.1 M Acetate buffer • b. Coupling buffer • c. Storing buffer: azide-coupling buffer: coupling buffer containing 0.1% NaN3 (final concentration)
(§2) The tested peptides (Table 1) were coupled to Sepharose Beads at two concentrations: 6 and 12 mg/ml Sepharose Beads. Sepharose Beads that underwent the coupling procedure without peptide addition (“naked Sepharose Beads”) served as a negative control (referred to herein as “Sepharose Beads-blank”). A cell binding assay was performed with 2 normal cell types: bovine aortal endothelial cells (BAEC) and human foreskin fibroblasts (FF1). Sepharose beads were added to 12 well culture plates with sub-confluent monolayer of the cultured cells (100-300 beads were added to each well). The fraction of Sepharose beads attached to the monolayer was determined at different times.

[2] = system: bovine aortal endothelial cells (BAEC); assay: as above; format: cell-based; details: for cell binding activity (BAEC), in words: 6 mg/ml
Procedure: as §1, §2

[3] = FIG. 3a, concentration not given

Sequence: GGWTVFQRRMDGSVDFYRK [M-Fic-K]
- cell binding activity (FF1), in words ([1]; 6 mg peptide/ml): dramatic change in activity

Sequence: GGWTVFQRRVDGSVDFYRK [M-Fic]
- cell binding activity (FF1), in words ([1]; 6 mg peptide/ml): initially inferior to the positive control; also recorded: retains its activity
- cell binding activity (FF1), in words ([1]; 6 mg peptide/ml, listed as M-fic): retain most of its activity
- time to reach saturated cell binding ([1]; 6 mg/ml, FF1): ≤ 24 h
- Nomarsky optic microscopy of peptide coated beads attached to FF1 ([1]; after 3 days of incubation, x100, FIG. 10): aggregates of cells and beads formed
- time to saturated attachment ([1]; conclusions, cell type and concentration not stated): 72 h
- binding rate of BAEC at the lower concentration ([2]; 6 mg/ml compared with 12 mg/ml, FIG. 9): slight decrease
- Nomarsky optic microscopy of peptide coated beads attached to endothelial cells (BAEC) ([2]; 3 weeks of incubation, x100, FIG. 12): formation of small tubes
- activity in forming bead-cell aggregates and tube like structures ([2]; longer incubation times, FIGS. 10-12): highest activity

Sequence: KGYKYSYKGGWTVFQRRMDGSVDFYR [C-M-Fic2]
- cell binding of FF1 reached [1, 3]: 100%
- kinetic profile of cell binding of FF1 [1, 3]: good kinetic profile of cell binding (fast attachment)

Sequence: KGYKYSYKGGWTVFQRRMDGSVDFYRK [C-M-Fic2-K, C-M-Fic2 with the addition of a lysine group]
- cell binding of FF1 reached [1, 3]: 100%
- kinetic profile of cell binding of FF1 [1, 3]: good kinetic profile of cell binding (fast attachment)

Sequence: KGYKYSYKVSEMKFQRRMDGSVDFYRK [C-M-Fic-a-K]
- rate/kinetics of cell binding of FF1 compared with positive control PreC ([1]; 6 mg peptide/ml, FIG. 1, FIG. 2): accelerated the kinetics of cell binding

Sequence: KGYKYSYKVSEMKVRPAK [C-Fic-a-K]
- cell binding of FF1 reached ([1]; 6 mg peptide/ml, FIG. 1): 100%

Sequence: KGYNYSYKSEMKVRPAK [C-Fic, b25 prints …]
- cell binding activity (FF1), in words ([1]; 6 mg peptide/ml): no reactivity
- cell binding activity (FF1), in words ([1]; 6 mg peptide/ml, listed as C-fic): did not attach; also recorded: looses its activity; also recorded: inactive
- cell binding of FF1 reached ([1]; 12 mg peptide/ml, after 150 hours (FIG. 4b)): 100%
- extent of cell binding ([2]; 6 mg peptide/ml, after 96 hours of incubation, cell type not stated (FF1 or BAEC)): about 30%
- cell binding activity (BAEC), in words [2]: completely looses reactivity
- cell binding activity (BAEC), in words ([2]; listed as C-fic): did not attach; also recorded: some activity

Sequence: KTRWYSMKKTTMKIIPFNR [PreC, positive control peptide, reference compound]
- cell binding of FF1 reached ([1]; 6 mg peptide/ml, FIG. 1): 100%
